Laboratory results as given in US5569471A, “Medicine for the treatment of tumor” (priority 1993, dated 1996).
“Also recorded” adds a separate entry of the source.

Assays:
[1] = test system: cisplatin-resistant human myeloid leukemia cells (K-562); experiment: Test for confirming the resistance dissolving effect, cisplatin-resistant cells; format: cell-based; conditions: FIG. 2; for cell killing effect, single dose: 4-piperidino-piperidine 2.5 μg/ml alone, cisplatin 1 alone, vs control
Description: As drug-fast cells, two kinds of human myeloid leukemia cells (K-562) which had acquired drug resistance against adriamycin (ADR) and cisplatin were used (see Kaoru MIURA, et al., "NK and LAK cell sensitivity and HLA expression" 51st Conference of Japan Cancer Association, page 252, 1992; and Nobutaka IMAIZUMI, Yoichiro KUSUKI, Chie KAWACHI, et al., "Establishing adriamycin-resistant strains and review on the mechanism of resistance", Oncologoa, 21, 89-94, 1988). In the test, adriamycin (ADR), cisplatin, and 4-piperidino-piperidine were dosed singly or in combination against the two kinds of the drug-fast cells, and the number of the lethal cells were counted.

[2] = test system: T-cells derived from human acute leukemia (RPMI-8402, T-ALL cells); experiment: Test for confirming the inhibitory effect on tumor cell propagation (6-day culture, counting of lethal and propagated cells); format: cell-based; conditions: 2.5, 12.5, 25, 50, 80 and 100 μg/ml, FIG. 1
Description: To samples of T-cells derived from human acute leukemia (RPMI-8402, T-ALL cells, see Minowada, J. and Moore, G. E., In Comparative Leukemia Research, Eds. Ito, Y. and Dutcher, R. M., Univ. Tokyo Press, Tokyo, pp. 251-261, 1975), 4-piperidino-piperidine (4-PP) in various concentrations was added (0, 2.5, 12.5, 25, 50, 80 and 100 μg/ml). After a 6-day culture, lethal cells and propagated cells were counted.

Toxicity test = conditions: in vivo; species and route not given
Description: The LD50 value of 4-piperidino-piperidine is about 200 to 300 mg/kg. Therefore, ordinary dose will not cause any risk.

T-ALL cells [3] = experiment: Test for confirming the effect of enhancing antitumor activity by a simultaneous dosage, T-ALL cells; format: cell-based, human; conditions: 4-piperidino-piperidine 2.5 μg/ml simultaneously, FIG. 4
Description: (§1) The numbers of the lethal cells were counted in cases where 4-piperidino-piperidine (2.5 μg/ml) and each of the ten kinds of the antitumor drugs listed in Table 3 were simultaneously dosed (in small amounts and large amounts for each drug), and where the ten kinds of the antitumor drugs were independently and singly dosed (in small amounts and large amounts for each drug).
(§2) The procedure of Example 9 was repeated by using human myeloblastic leukemia cells (K-562) in place of the T-ALL cells.

T-ALL cells [4] = experiment: Test for confirming the effect of enhancing antitumor activity by successive dosage; format: cell-based, human; conditions: FIG. 3
Description: The tumor cell killing effect was investigated by successively administering 4-piperidino-piperidine and an antitumor drug to T-ALL cells.
First, T-ALL cells were cultured in a plurality of culture media containing 4-piperidino-piperidine at different concentrations (2.5, 12.5, 25 and 50 μg/ml) for 6 days. […] The results are shown in FIG. 3, which employes a relative expression where the number of lethal cells in the standard cell groups was taken as 100% (shown by a horizontal perforated line). The numbers 1, 2, 3 and 4 given for each drug indicate that the concentration of 4-piperidino-piperidine used for the culture is 2.5, 12.5, 25 and 50 μg/ml, respectively.

[5] = test system: human myeloblastic leukemia cells (K-562); experiment: Test for confirming the effect of enhancing antitumor activity by a simultaneous dosage, K-562 cells; format: cell-based; conditions: 4-piperidino-piperidine 2.5 μg/ml simultaneously; drug doses of Table 3; FIG. 5
Description: as §1, §2

[6] = both drug concentrations (DNR 0.01/0.05, ACR 0.05/0.1, 5-FU 5/10 μg/ml)
[7] = 4-piperidino-piperidine precedently dosed at 12.5, 25 and 50 μg/ml, DNR 0.05, 5-FU 10 μg/ml
[8] = 4-piperidino-piperidine precedently dosed, all concentration groups (2.5, 12.5, 25 and 50 μg/ml), ACR 0.05, MTX 0.01 μg/ml
[9] = in the concentration of 0.05 μg/ml

In the case of `C1CCN(C2CCNCC2)CC1` [4-piperidino-piperidine], the “cell killing effect, single dose” value [1] is reported as “almost the same cell killing effect as that of the control group”, the “cell killing effect, simultaneous dose (resistance dissolving)” value ([1]; cisplatin and 4-piperidino-piperidine simultaneously dosed, compared with each dosed singly) is reported as “significantly enhanced” and the “number of propagated cells” value [2] is reported as “decreased in a dose-dependent manner”. For the same compound, the “number of lethal cells (tumor cell killing effect)” value ([2]; vs control) was “does not have tumor cell killing effect per se; also recorded: not significantly different from the count of the control group” and the LD50 (Toxicity test) was 200 to 300 mg/kg.

With `O=c1[nH]cc(F)c(=O)[nH]1` [5-FU, 5-Fluorouracil] the “enhancement of antitumor activity by combined use with 4-piperidino-piperidine” value (“enhancement of antitumor activity” for short) (T-ALL cells [3]; [6]) was “enhanced” and the “enhancement of antitumor drug effect (lethal cells relative to standard cells)” value (T-ALL cells [4]; [7]) was “enhanced effects”.

In the case of `CCC1(O)CC(OC2CC(N(C)C)C(OC3CC(O)C(OC4CCC(=O)C(C)O4)C(C)O3)C(C)O2)c2c(cc3c(c2O)C(=O)c2c(O)cccc2C3=O)C1C(=O)OC` (stereo not shown) [ACR], the “enhancement of antitumor activity” value (T-ALL cells [3]; [6]) is reported as “enhanced” and the “enhancement of antitumor drug effect (lethal cells relative to standard cells)” value (T-ALL cells [4]; [8]) is reported as “enhanced effects”.

With `COc1cccc2c1C(=O)c1c(O)c3c(c(O)c1C2=O)C[C@@](O)(C(=O)CO)C[C@@H]3O[C@H]1C[C@H](N)[C@H](O)[C@H](C)O1` [ADR] the “enhancement of antitumor activity” value [5] was “enhanced” and the “enhancement of antitumor activity” value (T-ALL cells [3]; [9]) was “enhanced”.

With `CCc1c2c(nc3ccc(OC(=O)N4CCC(N5CCCCC5)CC4)cc13)-c1cc3c(c(=O)n1C2)COC(=O)[C@]3(O)CC` [CPT-11, 7-Ethyl-10-piperidino-piperidinocarboxycamptothecin] the “enhancement of antitumor drug effect (lethal cells relative to standard cells)” value (T-ALL cells [4]; 4-piperidino-piperidine precedently dosed at 25 and 50 μg/ml, CPT-11 10 μg/ml) was “enhanced”.

For `COc1cccc2c1C(=O)c1c(O)c3c(c(O)c1C2=O)C[C@@](O)(C(C)=O)C[C@@H]3O[C@H]1C[C@H](N)[C@H](O)[C@H](C)O1` [DNR], the “enhancement of antitumor activity” value [5] was “enhanced”, the “enhancement of antitumor activity” value (T-ALL cells [3]; [6]) was “enhanced” and the “enhancement of antitumor drug effect (lethal cells relative to standard cells)” value (T-ALL cells [4]; [7]) was “enhanced effects”.

With `CN(Cc1cnc2nc(N)nc(N)c2n1)c1ccc(C(=O)N[C@@H](CCC(=O)O)C(=O)O)cc1` [MTX] the “enhancement of antitumor activity” value [5] was “enhanced” and the “enhancement of antitumor drug effect (lethal cells relative to standard cells)” value (T-ALL cells [4]; [8]) was “enhanced effects”.

With `O=C1c2c(O)ccc(O)c2C(=O)c2c(NCCNCCO)ccc(NCCNCCO)c21` [Mitoxantrone] the “enhancement of antitumor activity” value [5] was “enhanced” and the “enhancement of antitumor drug effect (lethal cells relative to standard cells)” value (T-ALL cells [4]; 4-piperidino-piperidine precedently dosed at 2.5 and 50 μg/ml, mitoxantrone 0.05 μg/ml) was “enhanced effects”.

For `CC[C@]1(O)C[C@H]2CN(CCc3c([nH]c4ccccc34)[C@@](C(=O)OC)(c3cc4c(cc3OC)N(C=O)[C@H]3[C@@](O)(C(=O)OC)[C@H](OC(C)=O)[C@]5(CC)C=CCN6CC[C@]43[C@@H]65)C2)C1` [VCR], the “enhancement of antitumor activity” value [5] was “enhanced”.

In the case of `CC[C@]1(O)C[C@@H]2CN(CCc3c([nH]c4ccccc34)[C@@](C(=O)OC)(c3cc4c(cc3OC)N(C)[C@H]3[C@@](O)(C(N)=O)[C@H](O)[C@]5(CC)C=CCN6CC[C@]43[C@@H]65)C2)C1` [VDS], the “enhancement of antitumor activity” value [5] is reported as “enhanced” and the “enhancement of antitumor activity” value (T-ALL cells [3]; [9]) is reported as “enhanced”.

With `N.N.[Cl][Pt][Cl]` [cisplatin] the “enhancement of antitumor activity” value [5] was “enhanced” and the “cell killing effect, single dose” value [1] was “almost the same cell killing effect as that of the control group”.

For `COc1cc([C@@H]2c3cc4c(cc3[C@@H](O[C@@H]3O[C@@H]5CO[C@@H](C)O[C@H]5[C@H](O)[C@H]3O)[C@H]3COC(=O)[C@H]23)OCO4)cc(OC)c1O` [etoposide], the “enhancement of antitumor activity” value [5] was “enhanced”.
